The text below walks through data of patent publication US20100016274A1, “BETA-LACTAM CANNABINOID RECEPTOR MODULATORS” (priority 2006, published 2010).

Where two headings read alike, the source gives them in different places.

In the assay the target is T1, cannabinoid receptor-1 (CB1), CB1R-containing cell membrane (Homo sapiens, UniProt P21554).
T1 construct: purchased Applied Cell Sciences Inc, Rockville, Md
The assay can be described thus: biochemical. In kind it is binding. As for the experimental part:
Method A using cell membranes. A compound is dissolved in DMSO and diluted to 1 M as a stock solution. […] A CB1R-containing cell membrane (Applied Cell Sciences Inc, Rockville, Md.) is diluted with binding buffer to a protein concentration of 28 μg/ml.
The mixture is incubated for 90 min at room temperature, then filtered through Whatman glass fiber C disc filter in a vacuum manifold. The filter is washed three times each with 2.5 ml cold wash buffer (binding buffer with only 2.5 mg/ml BSA). The vacuum-dried filter is transferred to a scintillation vial, treated with 3 ml Eco-Scint, and the radioactivity is read on a Beckman LS6500 scintillation counter from which an IC50 value is calculated. The corresponding Ki values are obtained from serial dilutions according to this method, and calculated through the use of a non-linear regression program (Graphpad Inc, San Diego, Calif.).

The mark [1] stands for this setting: displacement of 3H-CP55940 (1 nM) on CB1 receptors, read-out: IC50.
[2] abbreviates: IC50, displacement of 3H-CP55940 (1 nM) on CB1 receptors.

T1 sequence (P21554 whole entry, species assumed): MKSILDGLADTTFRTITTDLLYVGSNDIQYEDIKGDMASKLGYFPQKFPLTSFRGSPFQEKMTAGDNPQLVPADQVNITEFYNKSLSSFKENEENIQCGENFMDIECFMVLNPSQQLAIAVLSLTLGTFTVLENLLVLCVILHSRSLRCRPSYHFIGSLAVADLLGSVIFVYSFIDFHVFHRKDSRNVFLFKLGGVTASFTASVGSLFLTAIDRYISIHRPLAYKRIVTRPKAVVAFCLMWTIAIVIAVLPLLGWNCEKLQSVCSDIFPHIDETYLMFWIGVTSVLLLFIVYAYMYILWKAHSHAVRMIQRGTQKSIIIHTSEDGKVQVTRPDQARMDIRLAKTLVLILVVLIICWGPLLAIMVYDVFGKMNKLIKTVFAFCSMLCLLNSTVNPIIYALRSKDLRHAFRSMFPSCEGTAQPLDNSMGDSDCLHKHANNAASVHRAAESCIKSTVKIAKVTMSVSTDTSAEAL

As a reminder, the IC50 is the midpoint of a concentration-inhibition curve. Turning to “2(S)-(tert-Butoxycarbonylaminopropyl)-2-[3(S)-(4(S)-phenyloxazolidin-2-on-3-yl)-4(R)-(styr-2-yl)azetidin-2-on-1-yl]acetic acid N-(3-trifluoromethylbenzyl)amide [Example 20Q]”, the IC50 under setting [1] is less than 10 µM. As for `CCCN1CCN(C(=O)CC[C@@H](C(=O)NCc2cccc(C(F)(F)F)c2)N2C(=O)[C@@H](N3C(=O)OC[C@@H]3c3ccccc3)[C@H]2/C=C/c2ccccc2)CC1` [Example 35AJ], under setting [2], the 50% inhibitory concentration (IC50) was less than 10 µM. `CC(C)NC(=O)CN1CCN(C(=O)CC[C@@H](C(=O)NCc2cccc(C(F)(F)F)c2)N2C(=O)[C@@H](N3C(=O)OC[C@@H]3c3ccccc3)[C@H]2/C=C/c2ccccc2)CC1` [Example 35AK]: the IC50 under setting [2] is less than 10 µM.

`O=C(CC[C@@H](C(=O)N1CCN(C2CCCCC2)CC1)N1C(=O)[C@@H](N2C(=O)OC[C@@H]2c2ccccc2)[C@H]1/C=C/c1ccccc1)NCC1CCCCC1` [Example 37AA]: under setting [2], the IC50 was less than 10 µM.

Under setting [2], `O=C(CC[C@@H](C(=O)N1CCN(C2CCCCC2)CC1)N1C(=O)[C@@H](N2C(=O)OC[C@@H]2c2ccccc2)[C@H]1/C=C/c1ccccc1)NCCOc1ccccc1` [Example 37AB] had an IC50 of less than 10 µM. `O=C(CC[C@@H](C(=O)N1CCN(C2CCCCC2)CC1)N1C(=O)[C@@H](N2C(=O)OC[C@@H]2c2ccccc2)[C@H]1/C=C/c1ccccc1)NCc1ccc2c(c1)OCO2` [Example 37AC] returned an IC50 under setting [2] of less than 10 µM. `O=C(CC[C@@H](C(=O)N1CCN(C2CCCCC2)CC1)N1C(=O)[C@@H](N2C(=O)OC[C@@H]2c2ccccc2)[C@H]1/C=C/c1ccccc1)N1CCC(Cc2ccccc2)CC1` [Example 37AD] returned an IC50 under setting [2] of less than 10 µM.

`O=C(CC[C@@H](C(=O)N1CCN(C2CCCCC2)CC1)N1C(=O)[C@@H](N2C(=O)OC[C@@H]2c2ccccc2)[C@H]1/C=C/c1ccccc1)Nc1cccc(C(F)(F)F)c1` [Example 37AE] registered an IC50 under setting [2] of less than 10 µM.

For `O=C(CC[C@@H](C(=O)N1CCN(C2CCCCC2)CC1)N1C(=O)[C@@H](N2C(=O)OC[C@@H]2c2ccccc2)[C@H]1/C=C/c1ccccc1)NCc1cccc(OC(F)(F)F)c1` [Example 37L], the IC50 under setting [2] was less than 10 µM.

As for `O=C(CC[C@@H](C(=O)N1CCN(C2CCCCC2)CC1)N1C(=O)[C@@H](N2C(=O)OC[C@@H]2c2ccccc2)[C@H]1/C=C/c1ccccc1)NCc1ccc(Cl)c(Cl)c1` [Example 37M], under setting [2], the IC50 was less than 10 µM.

`O=C(CC[C@@H](C(=O)N1CCN(C2CCCCC2)CC1)N1C(=O)[C@@H](N2C(=O)OC[C@@H]2c2ccccc2)[C@H]1/C=C/c1ccccc1)NCc1cc(Cl)cc(Cl)c1` [Example 37N] showed an IC50 under setting [2] of less than 10 µM. Consider `O=C(CC[C@@H](C(=O)N1CCN(C2CCCCC2)CC1)N1C(=O)[C@@H](N2C(=O)OC[C@@H]2c2ccccc2)[C@H]1/C=C/c1ccccc1)NCc1cc(Cl)ccc1Cl` [Example 37O], for which, under setting [2], the IC50 is less than 10 µM. Under setting [2], `O=C(CC[C@@H](C(=O)N1CCN(C2CCCCC2)CC1)N1C(=O)[C@@H](N2C(=O)OC[C@@H]2c2ccccc2)[C@H]1/C=C/c1ccccc1)NCc1cccc(Cl)c1Cl` [Example 37P] registered an IC50 of less than 10 µM. On to `O=C(CC[C@@H](C(=O)N1CCN(C2CCCCC2)CC1)N1C(=O)[C@@H](N2C(=O)OC[C@@H]2c2ccccc2)[C@H]1/C=C/c1ccccc1)NCc1cc(C(F)(F)F)ccc1F` [Example 37Q], for which, under setting [2], the IC50 was less than 10 µM. For the compound `O=C(CC[C@@H](C(=O)N1CCN(C2CCCCC2)CC1)N1C(=O)[C@@H](N2C(=O)OC[C@@H]2c2ccccc2)[C@H]1/C=C/c1ccccc1)NCc1ccc(F)c(C(F)(F)F)c1` [Example 37R], the IC50 under setting [2] was less than 10 µM. `O=C(CC[C@@H](C(=O)N1CCN(C2CCCCC2)CC1)N1C(=O)[C@@H](N2C(=O)OC[C@@H]2c2ccccc2)[C@H]1/C=C/c1ccccc1)NCc1cccc(C(F)(F)F)c1F` [Example 37T]: under setting [2], the IC50 is less than 10 µM. In turn, `O=C(CC[C@@H](C(=O)N1CCN(C2CCCCC2)CC1)N1C(=O)[C@@H](N2C(=O)OC[C@@H]2c2ccccc2)[C@H]1/C=C/c1ccccc1)NC1CCc2ccccc21` (stereo partly shown) [Example 37V] returned a concentration for half-maximal inhibition (IC50) under setting [2] of less than 10 µM.

In turn, `O=C(CC[C@@H](C(=O)N1CCN(C2CCCCC2)CC1)N1C(=O)[C@@H](N2C(=O)OC[C@@H]2c2ccccc2)[C@H]1/C=C/c1ccccc1)N1CCC(n2c(O)nc3ccccc32)CC1` [Example 37W] came in with an IC50 under setting [2] of less than 10 µM.

Turning to `O=C(NCCc1ccccc1)[C@H](CCC(=O)N1CCN(C2CCCCC2)CC1)N1C(=O)[C@@H](N2C(=O)OC[C@@H]2c2ccccc2)[C@H]1/C=C/c1ccccc1` [Example 38AC], the IC50 under setting [2] was less than 10 µM.

Under setting [2], `COc1cc(CNC(=O)[C@H](CCC(=O)N2CCN(C3CCCCC3)CC2)N2C(=O)[C@@H](N3C(=O)OC[C@@H]3c3ccccc3)[C@H]2/C=C/c2ccccc2)cc(OC)c1` [Example 38AD] came in with an IC50 of less than 10 µM.

Under setting [2], `COc1cccc([C@@H](C)NC(=O)[C@H](CCC(=O)N2CCN(C3CCCCC3)CC2)N2C(=O)[C@@H](N3C(=O)OC[C@@H]3c3ccccc3)[C@H]2/C=C/c2ccccc2)c1` [Example 38AE] displayed an IC50 of less than 10 µM. The same measure, in the same setting: for `COc1cccc(C(C)NC(=O)C(CCC(=O)N2CCN(C3CCCCC3)CC2)N2C(=O)C(N3C(=O)OCC3c3ccccc3)C2C=Cc2ccccc2)c1` (stereo not shown) [Example 38AF] the value was less than 10 µM.

`CC(C)(NC(=O)[C@H](CCC(=O)N1CCN(C2CCCCC2)CC1)N1C(=O)[C@@H](N2C(=O)OC[C@@H]2c2ccccc2)[C@H]1/C=C/c1ccccc1)c1ccccc1` [Example 38AG] had a concentration for half-maximal inhibition (IC50) under setting [2] of less than 10 µM. `O=C(NCc1ccc(C(F)(F)F)cc1)[C@H](CCC(=O)N1CCN(C2CCCCC2)CC1)N1C(=O)[C@@H](N2C(=O)OC[C@@H]2c2ccccc2)[C@H]1/C=C/c1ccccc1` [Example 38BH] had an IC50 under setting [2] of less than 10 µM. Regarding `O=C(NCc1cccc2ccccc12)[C@H](CCC(=O)N1CCN(C2CCCCC2)CC1)N1C(=O)[C@@H](N2C(=O)OC[C@@H]2c2ccccc2)[C@H]1/C=C/c1ccccc1` [Example 38BL], under setting [2], the IC50 was less than 10 µM. In turn, `O=C(CC[C@@H](C(=O)N1CCc2ccccc2C1)N1C(=O)[C@@H](N2C(=O)OC[C@@H]2c2ccccc2)[C@H]1/C=C/c1ccccc1)N1CCN(C2CCCCC2)CC1` [Example 38BM] registered a half-maximal inhibitory concentration (IC50) under setting [2] of less than 10 µM.

For `O=C(NCc1ccccc1C(F)(F)F)[C@H](CCC(=O)N1CCN(C2CCCCC2)CC1)N1C(=O)[C@@H](N2C(=O)OC[C@@H]2c2ccccc2)[C@H]1/C=C/c1ccccc1` [Example 38K], the concentration for half-maximal inhibition (IC50) under setting [2] was approximately 10 µM.

As for `COc1cccc(CNC(=O)[C@H](CCC(=O)N2CCN(C3CCCCC3)CC2)N2C(=O)[C@@H](N3C(=O)OC[C@@H]3c3ccccc3)[C@H]2/C=C/c2ccccc2)c1` [Example 38L], the half-inhibitory concentration (IC50) under setting [2] was approximately 10 µM. For the compound `O=C(NCc1cccc(F)c1)[C@H](CCC(=O)N1CCN(C2CCCCC2)CC1)N1C(=O)[C@@H](N2C(=O)OC[C@@H]2c2ccccc2)[C@H]1/C=C/c1ccccc1` [Example 38M], the IC50 under setting [2] is approximately 10 µM. With `O=C(NCc1cc(F)cc(F)c1)[C@H](CCC(=O)N1CCN(C2CCCCC2)CC1)N1C(=O)[C@@H](N2C(=O)OC[C@@H]2c2ccccc2)[C@H]1/C=C/c1ccccc1` [Example 38N], under setting [2], the IC50 was approximately 10 µM. With `O=C(NCc1ccc(F)c(Cl)c1)[C@H](CCC(=O)N1CCN(C2CCCCC2)CC1)N1C(=O)[C@@H](N2C(=O)OC[C@@H]2c2ccccc2)[C@H]1/C=C/c1ccccc1` [Example 38O], under setting [2], the concentration for half-maximal inhibition (IC50) is less than 10 µM. In turn, `Cc1cccc(CNC(=O)[C@H](CCC(=O)N2CCN(C3CCCCC3)CC2)N2C(=O)[C@@H](N3C(=O)OC[C@@H]3c3ccccc3)[C@H]2/C=C/c2ccccc2)c1` [Example 38V] returned an IC50 under setting [2] of less than 10 µM.

With `O=C(C[C@@H](C(=O)NCc1cccc(C(F)(F)F)c1)N1C(=O)[C@@H](N2C(=O)OC[C@@H]2c2ccccc2)[C@H]1CCc1ccccc1)NC1CCN(Cc2ccccc2)CC1` [Example 53A, 2(S)-[[(1-Benzylpiperidin-4-yl)amino]carbonylmethyl]-2-[3 (S)-(4(S)-phenyloxazolidin-2-on-3-yl)-4(R)-(2-phenyleth-1-yl)azetidin-2-on-1-yl]acetic acid N-(3-trifluoromethylbenzyl)amide], under setting [2], the IC50 is less than 10 µM. The same measure, in the same setting: for `O=C(CN1C(=O)C(c2ccccc2)C1C=Cc1ccccc1)OCc1ccccc1` (stereo not drawn) [Example 70A, Benzyl 2-[3(S*)-2-Phenyl)-4(R*)-(2-styryl)azetidin-2-on-1-yl]acetate] the value was less than 10 µM. For the compound `O=C(NC1CCCc2ccccc21)[C@H](CCC(=O)N1CCN(C2CCCCC2)CC1)N1C(=O)[C@@H](N2C(=O)OC[C@@H]2c2ccccc2)[C@H]1/C=C/c1cccc2ccsc12` (stereo partly shown) [Example 72A], under setting [1], the IC50 was approximately 10 µM. `O=C(NC1CCCc2ccccc21)[C@H](CCC(=O)N1CCN(C2CCCCC2)CC1)N1C(=O)[C@@H](N2C(=O)OC[C@@H]2c2ccccc2)[C@H]1/C=C/c1cccs1` (stereo partly shown) [Example 72C]: the concentration for half-maximal inhibition (IC50) under setting [2] is approximately 10 µM. For the compound `O=C(N[C@@H]1CCCc2ccccc21)[C@H](CCC(=O)N1CCN(C2CCCCCC2)CC1)N1C(=O)[C@@H](N2C(=O)OC[C@@H]2c2ccccc2)[C@H]1/C=C/c1ccccc1` [Example 73A], the 50% inhibitory concentration (IC50) under setting [2] is less than 10 µM. Consider `O=C(N[C@@H]1CCCc2ccccc21)[C@H](CCC(=O)N1CCN(C2CCSCC2)CC1)N1C(=O)[C@@H](N2C(=O)OC[C@@H]2c2ccccc2)[C@H]1/C=C/c1ccccc1` [Example 73B], for which, under setting [1], the half-maximal inhibitory concentration (IC50) was approximately 10 µM. `O=C(NCc1cccc(C(F)(F)F)c1)[C@H](CCC(=O)N1CCN(C2CCCCC2)CC1)N1C(=O)[C@H](N2C(=O)OC[C@@H]2c2ccccc2)[C@@H]1/C=C/c1ccccc1` [Example 73C] came in with an IC50 under setting [2] of approximately 10 µM. On to `O=C(CC[C@@H](C(=O)N1CCN(c2ccccc2)CC1)N1C(=O)[C@@H](N2C(=O)OC[C@@H]2c2ccccc2)[C@H]1/C=C/c1ccccc1)NCc1cc(F)cc(C(F)(F)F)c1` [Example 73D], for which the IC50 under setting [1] was approximately 10 µM.
